Reference: patent US12583938B2, “Protein biomarker and uses thereof” (Daiichi Sankyo Co., Ltd., priority 2013, dated 2026)
Entries after “also recorded” stand apart in the source; their conditions may differ. Like-named read-outs stand apart in the source and are kept apart here.

Legend:
[1] = system: HER3 phosphorylation in BT474 cells; test: in vitro HER3 phosphorylation by Western blotting; format: cell-based, human; settings: FIG. 10
Protocol: FIG. 10 depicts Western blots showing that U3-1287 can block […] basal HER3 phosphorylation.
(§1) U3-1287 efficacy was determined in vitro by measuring reduction of phospho-HER3 and phospho-AKT levels.

Sum225 = test: human cancer xenograft in mice, tumor growth inhibition; format: in vivo; settings: BC FISH + ve, HRG (WB) −
Protocol: (§2) The HRG biomarker was identified by analysing the anti-tumor activity of the anti-HER3 antibody U3-1287 on various human cancer xenografts in vivo and analysis of the expression of HRG of these cell lines in vitro. Human tumor cell lines of various indications were grown as xenografts in mice and treated with the anti-HER3 antibody U3-1287 for several weeks. Inhibition of tumor growth was analysed by comparing the tumor volumes of control mice and mice treated with U3-1287. Human tumor cell lines were grown in vitro and analysed for HRG protein expression by Western blotting.

HT-29 = test: as above; format: in vivo; settings: HT-29 xenograft, Colon, HRG (WB) −
Protocol: as §2

HCC 1569 = test: as above; format: in vivo; settings: HCC 1569 xenograft, BC FISH + ve, HRG (WB) −
Protocol: as §2

NCI-H441 = test: as above; format: in vivo; settings: NSCLC, HRG (WB) −
Protocol: as §2

BxPC3 = test: as above; format: in vivo; settings: Pancreas, HRG (WB) +
Protocol: as §2

HT-144 = test: as above; format: in vivo; settings: HT-144 xenograft, Melanoma, HRG (WB) −
Protocol: as §2

Calu-3 = test: as above; format: in vivo; settings: Calu-3 xenograft, NSCLC, HRG (WB) +
Protocol: as §2

MKN-45 = test: as above; format: in vivo; settings: MKN-45 xenograft, Gastric, HRG (WB) −
Protocol: as §2

BT474 = test: as above; format: in vivo; settings: BC FISH + ve, HRG (WB) −
Protocol: as §2

FaDu = test: as above; format: in vivo; settings: Head&Neck, HRG (WB) +
Protocol: as §2

ZR75-1 = test: as above; format: in vivo; settings: ZR75-1 xenograft, BC FISH + ve, HRG (WB) −
Protocol: as §2

MDA-MB453 = test: as above; format: in vivo; settings: BC FISH + ve, HRG (WB) −
Protocol: as §2

MCF-7 = test: as above; format: in vivo; settings: MCF-7 xenograft, BC FISH + ve, HRG (WB) −
Protocol: as §2

A549 = test: as above; format: in vivo; settings: NSCLC, HRG (WB) +
Protocol: as §2

A375 = test: as above; format: in vivo; settings: Melanoma, HRG (WB) −
Protocol: as §2

NC-H1975 = test: as above; format: in vivo; settings: NSCLC, HRG (WB) +
Protocol: as §2

Stage IIIb/IV NSCLC [2] = settings: for OS: Subjects (%) with events / OS: Subjects (%) without events (censored) / PFS: Subjects (%) with events / PFS: Subjects (%) without events (censored) / Progression-Free Survival, Time to event, Median / Overall Survival, Time to event, Median: Full Analysis Set; for Progression-Free Survival, Time to event, Median / Overall Survival, Time to event, Median: Kaplan-Meier Estimate; for Overall Survival, Time to event, Median: preliminary; for On-Study Death / Primary Cause of On-Study Death: Adverse Event / Primary Cause of On-Study Death: Disease Progression / Primary Reason for Discontinuing Study Treatment: Adverse Event / Primary Reason for Discontinuing Study Treatment: Death / Primary Reason for Discontinuing Study Treatment: Progressive Disease (Radiographic Progression): Enrolled/Randomized Analysis Set; for HR for PFS (pooled dose vs placebo): soluble HRG high group, + erlotinib
Protocol: (§3) In both portions of the study, subjects received 150 mg of erlotinib orally once daily. […] Tumors were to be assessed every 6 weeks (±3 days) up to the first 24 weeks of the study, then every 12 weeks (±7 days) independent of treatment cycle.
An “HRG high” subject was defined as a subject with observed soluble HRG concentration of higher than 980 pg/mL, the Quartile 3 of the sample set. Soluble HRC concentration was measured by the improved ELISA method disclosed herein.
At the point of primary analysis, the treatment assignment for all subjects was unblinded to designated study personnel for analysis after data were reconciled and cleaned, and a snapshot of the clean database was created. To minimize potential bias, individual treatment assignment was not divulged to subjects or Investigators until study closure.
All efficacy analyses were performed on the full analysis set, which includes all subjects in the randomized analysis set who received at least one dose of randomized study medication. The primary efficacy endpoint was PFS. PFS is defined as the time from the date of randomization to the earlier of the dates of the first objective documentation of radiographic disease progression or death due to any cause. A subject who was alive with no objective documentation of (radiographic) disease progression by the data cut-off date was to be censored at the date of the last evaluable tumor assessment. The key secondary efficacy endpoint, overall survival, was defined as the time from the date of randomization to death due to any cause and was analyzed in the same manner as the primary efficacy endpoint PFS.
Kaplan-Meier curves were generated for PFS and used to calculate medians and 95% CIs for each treatment group.
The stratification factors included histology (Adenocarcinoma vs Non-Adenocarcinoma) and best response to prior therapy (CR/PR/SD vs PD). […] Cox's proportional hazards model with the same stratification factors used for the stratified log-rank test.
Unless otherwise indicated, tog-rank p-values and HRs for PFS and OS were based on the primary analysis adjusted for the stratification factors at randomization as described above.

[3] = monotherapy Phase 1 study of patritumab; format: in vivo
Protocol: A higher maintenance dose level of 18 mg/kg was also included to accommodate the possible effect of reduced tumor tissue penetration in the clinical setting relative to animal models.

Stage IIIb/IV NSCLC [4] = settings: Phase 1b, 150 mg erlotinib daily + 18 mg/kg patritumab every 3 weeks, 7 subjects
Protocol: as §3

[5] = system: HER3 phosphorylation in CaOV3 cells; test: in vitro reduction of phospho-HER3 and phospho-AKT levels by Western blotting; format: cell-based, human; settings: CaOV3, no basal HER3 activation, stimulated with exogenous heregulin; FIG. 9
Protocol: (§4) FIG. 9 depicts efficacy determined in vitro by measuring reduction of phospho-HER3 and phospho-AKT levels by Western blotting.
as §1

[6] = system: HER3 phosphorylation in A549 cells; test: as above; format: cell-based, human; settings: A549, endogenously express heregulin; FIG. 9
Protocol: as §4, §1

[7] = 9 mg/kg patritumab + erlotinib (N = 71)
[8] = 9 mg/kg patritumab + erlotinib (N = 72)
[9] = 18 mg/kg patritumab + erlotinib (N = 70)
[10] = 18 mg/kg patritumab + erlotinib (N = 72)

patritumab
efficacy on HER3 phosphorylation ([1]; BT474+HRG (exogenously added heregulin)): could be overcome by exogenously added heregulin
efficacy on basal HER3 phosphorylation ([1]; BT474 basal, do not express heregulin): no efficacy
ligand-dependent basal HER3 phosphorylation ([1]; Western blots): can block
In vivo efficacy (SA) (Sum225): No
In vivo efficacy (SA) (HT-29): Yes
In vivo efficacy (SA) (HCC 1569): No
In vivo efficacy (SA) (NCI-H441): No
In vivo efficacy (SA) (BxPC3): Yes
In vivo efficacy (SA) (HT-144): No
In vivo efficacy (SA) (Calu-3): Yes
In vivo efficacy (SA) (MKN-45): Yes
In vivo efficacy (SA) (BT474): No
In vivo efficacy (SA) (FaDu): Yes
In vivo efficacy (SA) (ZR75-1): No
In vivo efficacy (SA) (MDA-MB453): No
In vivo efficacy (SA) (MCF-7): No
In vivo efficacy (SA) (A549): Yes
In vivo efficacy (SA) (A375): No
In vivo efficacy (SA) (NC-H1975): Yes
OS: Subjects (%) with events (Stage IIIb/IV NSCLC [2]; [7]): 46 (64.8%) subjects (%)
OS: Subjects (%) without events (censored) (Stage IIIb/IV NSCLC [2]; [7]): 25 (35.2%) subjects (%)
PFS: Subjects (%) with events (Stage IIIb/IV NSCLC [2]; [7]): 52 (73.2%) subjects (%)
PFS: Subjects (%) without events (censored) (Stage IIIb/IV NSCLC [2]; [7]): 19 (26.8%) subjects (%)
Progression-Free Survival, Time to event, Median (Stage IIIb/IV NSCLC [2]; [7]): 2.5 months
Overall Survival, Time to event, Median (Stage IIIb/IV NSCLC [2]; [7]): 6.3 months
On-Study Death (Stage IIIb/IV NSCLC [2]; [8]): 9 subjects
Primary Cause of On-Study Death: Adverse Event (Stage IIIb/IV NSCLC [2]; [8]): 4 subjects
Primary Cause of On-Study Death: Disease Progression (Stage IIIb/IV NSCLC [2]; [8]): 4 subjects
Primary Reason for Discontinuing Study Treatment: Adverse Event (Stage IIIb/IV NSCLC [2]; [8]): 6 subjects
Primary Reason for Discontinuing Study Treatment: Death (Stage IIIb/IV NSCLC [2]; [8]): 2 subjects
Primary Reason for Discontinuing Study Treatment: Progressive Disease (Radiographic Progression) (Stage IIIb/IV NSCLC [2]; [8]): 45 subjects
OS: Subjects (%) with events (Stage IIIb/IV NSCLC [2]; [9]): 54 (77.1%) subjects (%)
OS: Subjects (%) without events (censored) (Stage IIIb/IV NSCLC [2]; [9]): 16 (22.9%) subjects (%)
PFS: Subjects (%) with events (Stage IIIb/IV NSCLC [2]; [9]): 58 (82.9%) subjects (%)
PFS: Subjects (%) without events (censored) (Stage IIIb/IV NSCLC [2]; [9]): 12 (17.1%) subjects (%)
Progression-Free Survival, Time to event, Median (Stage IIIb/IV NSCLC [2]; [9]): 1.4 months
Overall Survival, Time to event, Median (Stage IIIb/IV NSCLC [2]; [9]): 5.3 months
On-Study Death (Stage IIIb/IV NSCLC [2]; [10]): 20 subjects
Primary Cause of On-Study Death: Adverse Event (Stage IIIb/IV NSCLC [2]; [10]): 11 subjects
Primary Cause of On-Study Death: Disease Progression (Stage IIIb/IV NSCLC [2]; [10]): 8 subjects
Primary Reason for Discontinuing Study Treatment: Adverse Event (Stage IIIb/IV NSCLC [2]; [10]): 7 subjects
Primary Reason for Discontinuing Study Treatment: Death (Stage IIIb/IV NSCLC [2]; [10]): 11 subjects
Primary Reason for Discontinuing Study Treatment: Progressive Disease (Radiographic Progression) (Stage IIIb/IV NSCLC [2]; [10]): 42 subjects
number of subjects with the response being CR/PR (Stage IIIb/IV NSCLC [2]; high-dose patritumab (18 mg/kg every 3 weeks) + erlotinib): 5 (7.1%) subjects (%)
number of subjects with the response being CR/PR (Stage IIIb/IV NSCLC [2]; low-dose patritumab (18 mg/kg loading, 9 mg/kg maintenance every 3 weeks) + erlotinib): 9 (12.9%) subjects (%)
improvement in PFS or OS (Stage IIIb/IV NSCLC [2]; patritumab with erlotinib compared to erlotinib plus placebo, full analysis set (unselected ITT population)): no significant improvement
HR for PFS (pooled dose vs placebo) (Stage IIIb/IV NSCLC [2]; HRG protein concentration cut-off 0 (median) pg/mL, n 66): 0.58
HR for PFS (pooled dose vs placebo) (Stage IIIb/IV NSCLC [2]; HRG protein concentration cut-off 1622.5 pg/mL, n 39): 0.31
HR for PFS (pooled dose vs placebo) (Stage IIIb/IV NSCLC [2]; HRG protein concentration cut-off 2000 pg/mL, n 34): 0.28
HR for PFS (pooled dose vs placebo) (Stage IIIb/IV NSCLC [2]; HRG protein concentration cut-off 3000 pg/mL, n 30): 0.24
HR for PFS (pooled dose vs placebo) (Stage IIIb/IV NSCLC [2]; HRG protein concentration cut-off 4000 pg/mL, n 27): 0.26
HR for PFS (pooled dose vs placebo) (Stage IIIb/IV NSCLC [2]; HRG protein concentration cut-off 5000 pg/mL, n 23): 0.40
HR for PFS (pooled dose vs placebo) (Stage IIIb/IV NSCLC [2]; HRG protein concentration cut-off 980 (Q3) pg/mL, n 46): 0.41
treatment difference in PFS and OS (Stage IIIb/IV NSCLC [2]; subjects with tumors expressing low HRG at a protein level (<980 pg/mL), pooled patritumab + erlotinib vs placebo + erlotinib): no clear treatment difference
maximum tolerated dose ([3]; Phase 1 study): not reached
dose limiting toxicity ([3]; in vivo): lack of dose limiting toxicity
AEs grade≥3, number of subjects (Stage IIIb/IV NSCLC [4]): 2 subjects
patritumab-related AE reported in ≥2 subjects (Stage IIIb/IV NSCLC [4]): decreased appetite
relation of grade≥3 AEs to patritumab (Stage IIIb/IV NSCLC [4]): none were related to patritumab
tumor response (Stage IIIb/IV NSCLC [4]): No response was recorded
DLTs (Stage IIIb/IV NSCLC [4]; 18 mg/kg): no DLTs were seen; also recorded: No DLTs were reported
subjects with serious AEs (Stage IIIb/IV NSCLC [4]; four serious AEs): Three
HER3 phosphorylation [5]: could be blocked
Basal HER3 phosphorylation [6]: could be blocked
